Values of other authors in patent US5331009A, “Pharmaceutical compositions for treating adrenoleukodystrophy” (Croda International plc, priority 1988, dated 1994).

Test system: ALD patients

| Structure (SMILES) | C26:0 body levels (very long chain fatty acids omitted from diet, glyceryl trioleate used alone) | therapeutic benefit of administration to ALD patients (Rizzo, Neurology 36 (1986) 357, Moser, Ann. Neurol. 21, 1987) |
| --- | --- | --- |
| CCCCCCCC/C=C\CCCCCCCC(=O)OCC(COC(=O)CCCCCCC/C=C\CCCCCCCC)OC(=O)CCCCCCC/C=C\CCCCCCCC [glyceryl trioleate] | reductions can occur |  |
| CCCCCCCC/C=C\CCCCCCCC(=O)O [oleic acid (C18:1), oleic acid] |  | generally therapeutically advantageous |
